Measured values: PubChem BioAssay AID248 (DTP/NCI, 2004)
Several values for one entry are separate records, joined by “and”; a condition that tells them apart may be missing. Equal entries are not always repeated. Toxic doses and inconclusive results are not listed. Cut-off read from the data, not from the text of the source: active = T/C of 150% or more; inactive = T/C below 125%.

Test system: L1210 leukemia ip in BDF1 mice, survival T/C
Assay: NCI In Vivo Anticancer Drug Screen. Data for tumor model L1210 Leukemia (intraperitoneal) in B6D2F1 (BDF1) mice
Details: endpoint: mean survival time, higher = longer survival
Procedure, shortened: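 Each compound was tested against a transplantable tumor grown in mice. The endpoint was survival, with treated animals benchmarked against vehicle controls as a simple ratio.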

[1] = dose: 100.0 mg/kg/injection, schedule: Q01DX001 (ip), vehicle: saline
[2] = dose: 100.0 mg/kg/injection, schedule: Q04DX003 (ip), vehicle: Klucel (hydroxypropylcellulose) (HPC)
[3] = dose: 200.0 mg/kg/injection, schedule: Q01DX001 (ip), vehicle: saline
[4] = dose: 200.0 mg/kg/injection, schedule: Q04DX003 (ip), vehicle: Klucel (hydroxypropylcellulose) (HPC)
[5] = dose: 400.0 mg/kg/injection, schedule: Q01DX001 (ip), vehicle: saline
[6] = dose: 400.0 mg/kg/injection, schedule: Q04DX003 (ip), vehicle: Klucel (hydroxypropylcellulose) (HPC)
[7] = dose: 100.0 mg/kg/injection, schedule: Q01DX001 (ip), vehicle: Klucel (hydroxypropylcellulose) (HPC)
[8] = dose: 200.0 mg/kg/injection, schedule: Q01DX001 (ip), vehicle: Klucel (hydroxypropylcellulose) (HPC)
[9] = dose: 100.0 mg/kg/injection, schedule: Q01DX009 (ip), vehicle: saline with Tween-80
[10] = dose: 200.0 mg/kg/injection, schedule: Q01DX009 (ip), vehicle: saline with Tween-80
[11] = dose: 100.0 mg/kg/injection, schedule: Q01DX009 (ip), vehicle: Klucel (hydroxypropylcellulose) (HPC)
[12] = dose: 200.0 mg/kg/injection, schedule: Q01DX009 (ip), vehicle: Klucel (hydroxypropylcellulose) (HPC)
[13] = dose: 400.0 mg/kg/injection, schedule: Q01DX009 (ip), vehicle: Klucel (hydroxypropylcellulose) (HPC)
[14] = dose: 100.0 mg/kg/injection, schedule: Q04DX003 (ip), vehicle: saline with Tween-80
[15] = dose: 200.0 mg/kg/injection, schedule: Q04DX003 (ip), vehicle: saline with Tween-80
[16] = dose: 50.0 mg/kg/injection, schedule: Q01DX001 (ip), vehicle: carboxymethylcellulose (CMC)
[17] = dose: 100.0 mg/kg/injection, schedule: Q01DX001 (ip), vehicle: carboxymethylcellulose (CMC)
[18] = dose: 100.0 mg/kg/injection, schedule: Q04DX002 (ip), vehicle: saline with Tween-80
[19] = dose: 200.0 mg/kg/injection, schedule: Q01DX001 (ip), vehicle: carboxymethylcellulose (CMC)
[20] = dose: 200.0 mg/kg/injection, schedule: Q04DX002 (ip), vehicle: saline with Tween-80
[21] = dose: 400.0 mg/kg/injection, schedule: Q01DX001 (ip), vehicle: carboxymethylcellulose (CMC)
[22] = dose: 400.0 mg/kg/injection, schedule: Q04DX002 (ip), vehicle: saline with Tween-80
[23] = dose: 75.0 mg/kg/injection, schedule: Q01DX001 (ip), vehicle: saline
[24] = dose: 400.0 mg/kg/injection, schedule: Q01DX009 (ip), vehicle: saline with Tween-80

Measured: T/C

Ic1ncnc2c1ncn2C1CCCCO1 (stereo not drawn)
inactive: dose: 31.0 mg/kg/injection, schedule: Q01DX Z (ip), vehicle: other 111 % of control | dose: 62.0 mg/kg/injection, schedule: Q01DX Z (ip), vehicle: other 109 % of control | [1] 98 % of control | dose: 100.0 mg/kg/injection, schedule: Q01DX009 (ip), vehicle: saline sonified 96 % of control | [2] 93 % of control | dose: 125.0 mg/kg/injection, schedule: Q01DX Z (ip), vehicle: other 103 % of control | [3] 107 % of control | dose: 200.0 mg/kg/injection, schedule: Q01DX009 (ip), vehicle: saline sonified 93 % of control | [4] 94 % of control | dose: 250.0 mg/kg/injection, schedule: Q01DX Z (ip), vehicle: other 111 % of control | dose: 375.0 mg/kg/injection, schedule: Q01DX Z (ip), vehicle: other 114 % of control | [5] 104 % of control | [6] 98 % of control | dose: 500.0 mg/kg/injection, schedule: Q01DX Z (ip), vehicle: other 121 % of control

S=C(Cc1ccccc1)NC1CCCCC1
inactive: [2] 103 % of control | [4] 101 % of control | [6] 95 % of control

CC/C(C)=N/NS(C)(=O)=O
inactive: dose: 75.0 mg/kg/injection, schedule: Q01DX001 (ip), vehicle: other 103 % of control | dose: 150.0 mg/kg/injection, schedule: Q01DX001 (ip), vehicle: other 97 % of control

Oc1ccccc1C=Nc1ccccc1N=Cc1ccccc1O
inactive: [7] 102 % of control | [8] 103 % of control | dose: 400.0 mg/kg/injection, schedule: Q01DX001 (ip), vehicle: Klucel (hydroxypropylcellulose) (HPC) 96 % of control

O=C(Nc1cc(S(=O)(=O)O)cc2cc(S(=O)(=O)O)c(N=Nc3ccc([As](=O)(O)O)cc3)c(O)c12)c1ccc([N+](=O)[O-])cc1
inactive: dose: 200.0 mg/kg/injection, schedule: Q04DX003 (ip), vehicle: saline sonified 92 % of control

OC(c1ccccc1)(c1ccccc1)C1CCc2cc3ccccc3nc21 (stereo not drawn)
inactive: dose: 50.0 mg/kg/injection, schedule: Q01DX009 (ip), vehicle: saline with Tween-80 95 % of control | [9] 98 % of control | [10] 95 % of control

CCN(CC)CCCNCC(Cc1ccccc1)c1ccccc1 (stereo not drawn)
inactive: dose: 100.0 mg/kg/injection, schedule: Q04DX002 (ip), vehicle: saline 92 % of control | dose: 200.0 mg/kg/injection, schedule: Q04DX002 (ip), vehicle: saline 99 % of control

CC(C)OC(CCCl)c1ccccc1 (stereo not drawn)
inactive: [11] 91 % of control | [2] 96 % of control | [12] 96 % of control | [4] 102 % of control | [13] 95 % of control | [6] 96 % of control

CCSc1nc(N)c(C#N)cc1C#N
inactive: [11] 105 % of control | [2] 88 % of control | [12] 95 % of control | [4] 95 % of control

CN(C)CCC/C=N/Nc1ccc(Cl)cc1[N+](=O)[O-]
inactive: [14] 96 % of control | [15] 91 % of control

COc1ccc(Cl)cc1NC(=O)c1cccc(C(=O)Nc2cc(Cl)ccc2OC)c1
inactive: [11] 92 % of control | [2] 94 % of control | [12] 93 % of control | [4] 94 % of control | [13] 104 % of control | [6] 92 % of control

CC(C)c1ccc2ccccc2c1
inactive: [9] 95 % of control | [10] 107 % of control

O=C(O)C(SSC(C(=O)O)(c1ccccc1)c1ccccc1)(c1ccccc1)c1ccccc1
inactive: [2] 106 % of control | [4] 102 % of control | [6] 88 % of control

Cc1cccc(-n2c(N)cc(=O)[nH]c2=S)n1
inactive: dose: 12.5 mg/kg/injection, schedule: Q01DX009 (ip), vehicle: saline 97 % of control | dose: 12.5 mg/kg/injection, schedule: Q04DX003 (ip), vehicle: saline 96 % of control | dose: 25.0 mg/kg/injection, schedule: Q01DX009 (ip), vehicle: saline 96 % of control | dose: 25.0 mg/kg/injection, schedule: Q04DX003 (ip), vehicle: saline 96 % of control | dose: 50.0 mg/kg/injection, schedule: Q01DX009 (ip), vehicle: saline 94 % of control and 105 % of control | dose: 50.0 mg/kg/injection, schedule: Q04DX003 (ip), vehicle: saline 91 % of control | dose: 100.0 mg/kg/injection, schedule: Q01DX009 (ip), vehicle: saline 87 % of control

O=C1CCn2c1c(O)c1ccccc1c2=O
inactive: [1] 97 % of control | [3] 97 % of control

NC(=S)N/N=C/c1ccccc1O
inactive: [16] 96 % of control | [17] 104 % of control | [18] 90 % of control | [19] 91 % of control | [20] 104 % of control | [21] 91 % of control | [22] 93 % of control

CC(=O)CC(=O)Nc1cccc([N+](=O)[O-])c1
inactive: [11] 98 % of control | [2] 97 % of control | [4] 91 % of control | [6] 93 % of control

O=CN/N=C/c1ccc([N+](=O)[O-])cc1
inactive: [23] 92 % of control | dose: 150.0 mg/kg/injection, schedule: Q01DX001 (ip), vehicle: saline 87 % of control | dose: 300.0 mg/kg/injection, schedule: Q01DX001 (ip), vehicle: saline 89 % of control

CC1(C)OC(=O)C(=Cc2c(Cl)cccc2Cl)C(=O)O1
inactive: [1] 98 % of control | [9] 104 % of control | dose: 100.0 mg/kg/injection, schedule: Q04DX003 (ip), vehicle: saline 99 % of control | [3] 95 % of control | [10] 92 % of control | dose: 200.0 mg/kg/injection, schedule: Q04DX003 (ip), vehicle: saline 94 % of control | [5] 96 % of control | dose: 400.0 mg/kg/injection, schedule: Q04DX003 (ip), vehicle: saline 97 % of control

O=Nc1ccc(SCC(=O)NNC(=O)CSc2ccc(N=O)cc2[N+](=O)[O-])cc1
inactive: [14] 93 % of control

CC1(C)N=C(N)N=C(N)N1c1cccc(CC(C(=O)Nc2ccc(S(=O)(=O)F)cc2)c2ccccc2)c1 (stereo not drawn)
inactive: dose: 25.0 mg/kg/injection, schedule: Q01DX001 (ip), vehicle: Klucel (hydroxypropylcellulose) (HPC) 95 % of control | dose: 50.0 mg/kg/injection, schedule: Q01DX001 (ip), vehicle: Klucel (hydroxypropylcellulose) (HPC) 95 % of control | [7] 94 % of control and 95 % of control | [8] 101 % of control

CCCCCCCCCCCCCCCCSSCCCCCCCCCCCCCCCC
inactive: [17] 93 % of control | [9] 92 % of control | [19] 95 % of control | [10] 95 % of control | [21] 95 % of control | [24] 87 % of control

NNC(=O)c1ccc[nH]1
inactive: [23] 102 % of control

O=[N+]([O-])c1ccc(OCc2ccccc2S(=O)(=O)F)c(Cl)c1
inactive: dose: 100.0 mg/kg/injection, schedule: Q04DX003 (ip), vehicle: gum acacia 92 % of control | dose: 200.0 mg/kg/injection, schedule: Q04DX003 (ip), vehicle: gum acacia 93 % of control | dose: 400.0 mg/kg/injection, schedule: Q04DX003 (ip), vehicle: gum acacia 100 % of control

Cc1cccc(NC(=O)OC/C=C/c2ccccc2)c1
inactive: dose: 100.0 mg/kg/injection, schedule: Q01DX001 (ip), vehicle: saline with Tween-80 114 % of control | [9] 102 % of control and 103 % of control | [18] 105 % of control and 108 % of control | [14] 86 % of control | dose: 200.0 mg/kg/injection, schedule: Q01DX001 (ip), vehicle: saline with Tween-80 103 % of control | [10] 95 % of control and 96 % of control | [20] 95 % of control and 105 % of control | [15] 90 % of control | dose: 400.0 mg/kg/injection, schedule: Q01DX001 (ip), vehicle: saline with Tween-80 97 % of control | [24] 90 % of control | [22] 95 % of control and 105 % of control | dose: 400.0 mg/kg/injection, schedule: Q04DX003 (ip), vehicle: saline with Tween-80 86 % of control

O=[N+]([O-])c1cccc(/C=N/Nc2nnc(N/N=C/c3cccc([N+](=O)[O-])c3)c3ccccc23)c1
inactive: [16] 98 % of control | [17] 98 % of control | [19] 87 % of control | [21] 93 % of control
